“And” between values parts separate entries of the source, which are not always exact repeats. Equal entries are not always repeated.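 Tested at 5 concentrations; 48 h exposure; 96-well plates; endpoints linearly interpolated, else capped at highest concentration. GI50 is the concentration that inhibits growth by half. The concentration for full growth arrest is given as TGI.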
Tests used:
Assay in all cases: inhibition of tumour cell growth, NCI panel, 48 h
EKVX NSCLC = tested on: EKVX NSCLC
UACC-62 melanoma = tested on: UACC-62 melanoma
K-562 leukemia = tested on: K-562 leukemia
SK-OV-3 ovarian = tested on: SK-OV-3 ovarian
OVCAR-4 ovarian = tested on: OVCAR-4 ovarian
HOP-92 NSCLC = tested on: HOP-92 NSCLC
ACHN renal = tested on: ACHN renal
COLO 205 colon = tested on: COLO 205 colon
A549 NSCLC = tested on: A549 NSCLC
NCI-H226 lung = tested on: NCI-H226 lung

| Compound | GI50 (EKVX NSCLC) | TGI (EKVX NSCLC) | GI50 (UACC-62 melanoma) | TGI (UACC-62 melanoma) | GI50 (K-562 leukemia) | TGI (K-562 leukemia) | GI50 (SK-OV-3 ovarian) | TGI (SK-OV-3 ovarian) | GI50 (OVCAR-4 ovarian) | TGI (OVCAR-4 ovarian) | GI50 (HOP-92 NSCLC) | TGI (HOP-92 NSCLC) | GI50 (ACHN renal) | TGI (ACHN renal) | GI50 (COLO 205 colon) | TGI (COLO 205 colon) | GI50 (A549 NSCLC) | TGI (A549 NSCLC) | GI50 (NCI-H226 lung) | TGI (NCI-H226 lung) |
| --- | --- | --- | --- | --- | --- | --- | --- | --- | --- | --- | --- | --- | --- | --- | --- | --- | --- | --- | --- | --- |
| OCCNc1ncnc2c1ncn2Cc1cccc(COc2cccc(OCc3cccc(Cn4cnc5c(NCCO)ncnc54)c3)c2)c1 | 14.3 µM | 29 µM | 17 µM | 33.8 µM | 8.01 µM | 35.8 µM | > 100 µM | > 100 µM | 14.7 µM | 34.2 µM | 7.61 µM | 23.6 µM | 20.7 µM | 43.2 µM | 13.5 µM | 32.2 µM | 24.9 µM | 50.7 µM | 15.5 µM | 33.3 µM |
| Cn1c2c(c3ccc(Cl)c(Cl)c31)C(C#N)C1(CCNCC1)NC2=O (stereo not drawn) | 2.47 µM | 9.84 µM | 1.63 µM | 3.31 µM | 1.47 µM | 2.89 µM | 2.73 µM | 8.97 µM | 2.82 µM | 8.8 µM | 0.484 µM | 2.37 µM | 1.82 µM | 5.79 µM | 1.19 µM | 2.54 µM | 2.42 µM | 7.89 µM | 2.24 µM | 12.7 µM |
| O=c1cccc(C2CC(CO)C3CCCCN3C2)[nH]1 (stereo not drawn) | – | > 100 µM | – | > 100 µM | – | > 100 µM | – | > 100 µM | – | > 100 µM | – | > 100 µM | – | > 100 µM | – | > 100 µM | – | > 100 µM | – | > 100 µM |
| C/C=C1\NC(=O)[C@H]2CSSCCC=C[C@H](CC(=O)N[C@H](C(C)C)C(=O)N2)OC(=O)[C@H](C(C)C)NC1=O | < 0.01 µM | – | < 0.01 µM | < 0.01 µM and 0.0113 µM | < 0.01 µM and 0.000147 µM | – | < 0.01 µM and 0.000175 µM | < 0.01 µM and 0.00789 µM | 0.0109 µM and < 0.0102 µM | 0.201 µM and 0.0892 µM and 0.619 µM | < 0.01 µM | < 0.01 µM and 0.0161 µM and < 0.0324 µM | < 0.01 µM | 0.0459 µM and 0.0364 µM | < 0.01 µM and 0.000172 µM | < 0.01 µM and 0.000811 µM | < 0.01 µM | < 0.012 µM and 0.0205 µM and 0.0185 µM | < 0.01 µM | 0.268 µM and 0.0317 µM and < 0.0312 µM |
| COC(=O)C(CC(=O)Nc1ccc(C)cc1)C(=O)C(=O)Nc1ccccc1C(C)C (stereo not drawn) | – | > 100 µM | – | > 100 µM | – | > 100 µM | – | > 100 µM | – | > 100 µM | – | > 100 µM | – | > 100 µM | – | > 100 µM | – | > 100 µM | – | > 100 µM |
| CCC[n+]1cc2cc(OC)c(OC)cc2c2c1-c1cc3c(cc1C2)OCO3 | 11.9 µM | 48 µM | 2.06 µM | 5.77 µM | 3.03 µM | > 20.5 µM | 25.6 µM | 52.3 µM | 4.84 µM | 19.2 µM | 10.1 µM | 40.6 µM | 9.45 µM | 36.7 µM | 1.61 µM | 8.52 µM | 18.3 µM | 35.5 µM | 1.03 µM | 8.13 µM |
| COc1ccc2[nH]c(O)c(C(=Nc3ccc(N(C)C(=O)CN4CCN(C)CC4)cc3)c3ccccc3)c2c1 | 3.94 µM | 16.2 µM | 5.01 µM | 16.4 µM | 0.609 µM | 13.8 µM | 2.96 µM | 9.32 µM | 2.13 µM | 12.6 µM | 0.436 µM | 5.55 µM | 2.54 µM | 10.8 µM | 0.575 µM | 2.9 µM | 2.73 µM | 14.1 µM | 2.27 µM | 15.6 µM |
| COc1cc(-c2cn(-c3ccc(Cl)c(Cl)c3)c(=O)n2C(C)=O)cc(OC)c1OC | 2.6 µM | 8.26 µM | 13.3 µM | 26 µM | 16.1 µM | > 100 µM | 15.4 µM | 33.3 µM | 5.21 µM | > 100 µM | 3.42 µM | 16.8 µM | 10.4 µM | 30.5 µM | 7.9 µM | 21.7 µM | 15 µM | 41 µM | 7.96 µM | 25.9 µM |
| CCOC(=O)/C=C/C1=C(c2cccs2)c2ccccc2CC1 | 27.8 µM | 86.7 µM | 18.7 µM | 40.9 µM | 30.6 µM | > 100 µM | 31.6 µM | > 100 µM | 38.9 µM | > 100 µM | 37.4 µM | > 100 µM | 17.1 µM | 34.5 µM | 17 µM | 46.3 µM | 33.8 µM | > 100 µM | 25.4 µM | 70.2 µM |
| COc1ccc(Cn2cc3c(c2)-c2oncc2CC3)cc1 | 12.7 µM | > 100 µM | 3.75 µM | > 100 µM | 2.4 µM | > 66.5 µM | 4.92 µM | > 82.1 µM | 6.53 µM | > 29.8 µM | 5.14 µM | 37.3 µM | 11.6 µM | > 100 µM | 3.59 µM | 14.5 µM | 7.26 µM | > 74.4 µM | 16 µM | > 100 µM |
| O=C1C(c2ccccc2)=[N+]([O-])c2ccccc21 | – | 35.4 µM | – | 29.5 µM | – | 8.34 µM | – | 31.4 µM | – | 15.3 µM | – | 20.7 µM | – | 33.6 µM | – | 29.7 µM | – | 48.7 µM | – | 37.8 µM |
| Cc1cc(S(=O)(=O)NC#N)c(S/C(=N\Nc2ccc([N+](=O)[O-])cc2)c2ccc(Cl)cc2)cc1Cl | 20.2 µM | 70.2 µM | > 100 µM | > 100 µM | 35.3 µM | 80.3 µM | 17.9 µM | 57.6 µM | 20.9 µM | 75 µM | 19.4 µM | 96.9 µM | 34.1 µM | > 100 µM | 15.2 µM | 30.7 µM | 52.6 µM | > 100 µM | 18.5 µM | 46.1 µM |
| Fc1cc2[nH]ncc2c2c3c(c(-c4cn[nH]c4C(F)(F)F)nc12)C1CCC3C1 (stereo not drawn) | 1.39 µM | 5.91 µM | 0.878 µM | 3.39 µM | 1.61 µM | > 50 µM | 0.729 µM | 2.26 µM | 2.68 µM | 23.4 µM | 0.885 µM | 3.04 µM | 0.532 µM | 3.2 µM | 0.874 µM | 2.24 µM | 1.07 µM | 4.41 µM | 0.926 µM | 4.72 µM |
| Cc1cc2c(cc1C)N(C(=O)CCl)CCN2C(=O)CCl | 1.99 µM | 4.64 µM | 0.657 µM | 2.29 µM | 0.378 µM | 2 µM | 1.9 µM | 3.98 µM | 1.44 µM | 3.37 µM | 1.6 µM | 3.2 µM | 0.638 µM | 2.08 µM | 0.484 µM | 1.02 µM | 2.09 µM | 4.29 µM | 0.559 µM | 1.8 µM |
| CS(=O)(=O)CSCSSCS(C)(=O)=O | – | > 100 µM | – | 47 µM | – | > 95.5 µM | – | > 100 µM | – | > 100 µM | – | 98.2 µM | – | > 100 µM | – | 38 µM | – | > 100 µM | – | > 100 µM |
| Cc1cc(Cl)ccc1Nc1nc(C(F)(F)F)ccc1C(=O)N/N=C/c1ccc([N+](=O)[O-])cc1 | 2.37 µM | > 29.7 µM | 2.6 µM | 11.7 µM | 1.43 µM | > 24.8 µM | 2.16 µM | 7.27 µM | 0.602 µM | > 20 µM | 1.34 µM | 5.47 µM | 1.08 µM | 5.14 µM | 1.75 µM | 3.64 µM | 1.07 µM | 5.54 µM | 1.58 µM | 4.27 µM |
| CCn1c(-c2nonc2N)nc2c(C#CC(C)(C)O)nc(OCCNC)cc21 | > 18.3 µM | > 25 µM | 6.08 µM | 16.9 µM | 10.3 µM | > 25 µM | 5.74 µM | > 25 µM | 9.89 µM | > 25 µM | 4.59 µM | 14.5 µM | 8.29 µM | > 25 µM | 4.84 µM | 10.3 µM | 8.27 µM | > 25 µM | 8.09 µM | > 23.1 µM |
| COC1OC(CO)C(O)C1N (stereo not drawn) | – | > 100 µM | – | > 100 µM | – | > 100 µM | – | > 100 µM | – | > 100 µM | – | > 100 µM | – | > 100 µM | – | > 100 µM | – | > 100 µM | – | > 100 µM |
| COc1ccccc1/C=C/C(=O)c1ccccc1 | 11 µM | 28.5 µM | 5.17 µM | 18.4 µM | 3.41 µM | > 100 µM | 33.3 µM | > 100 µM | 9.33 µM | 25.9 µM | 6.3 µM | 30.7 µM | 5.04 µM | 15.2 µM | 16.9 µM | 42.1 µM | 17.9 µM | 38.8 µM | 13.3 µM | 33.1 µM |
| COC1C2C=CC(C2)[C@H]1[N+](=O)[O-] (stereo partly drawn) | – | > 100 µM | – | > 100 µM | – | > 100 µM | – | > 100 µM | – | > 100 µM | – | > 100 µM | – | > 100 µM | – | > 100 µM | – | > 100 µM | – | > 100 µM |
